Measurements as given in ChEMBL document CHEMBL1145410 (Bioorg Med Chem Lett, 2007).

Columns and labels:
[1] = molecular target: Dipeptidyl peptidase 4 (Homo sapiens, UniProt P27487); test: Inhibition of DPP4
[2] = molecular target: Dipeptidyl peptidase 9 (Homo sapiens, UniProt Q86TI2); test: Inhibition of DPP9
[3] = molecular target: Dipeptidyl peptidase 8 (Homo sapiens, UniProt Q6V1X1); test: Inhibition of DPP8
[4] = molecular target: Dipeptidyl peptidase 2 (Homo sapiens, UniProt Q9UHL4); test: Inhibition of QPP
[5] = Inhibition of rabbit calcium channel L type; parameters: species or system Oryctolagus cuniculus
[6] = Bioavailability iin rat at 1 mg/kg iv or 2 mg/kg po; assay type: ADME, organism-based; settings: in vivo
[7] = Half life in rat at 1 mg/kg iv or 2 mg/kg po; assay type: ADME, organism-based; settings: in vivo
[8] = Plasma clearance in rat at 1 mg/kg iv or 2 mg/kg po; assay type: ADME, organism-based
[9] = molecular target: Cytochrome P450 2D6 (Homo sapiens, UniProt P10635); test: Inhibition of Cyp2D6; assay type: ADME
[10] = molecular target: Voltage-gated inwardly rectifying potassium channel KCNH2 (Homo sapiens, UniProt Q12809); test: Inhibition of human ERG potassium channel
Chain of Voltage-gated inwardly rectifying potassium channel KCNH2 (Q12809 whole entry): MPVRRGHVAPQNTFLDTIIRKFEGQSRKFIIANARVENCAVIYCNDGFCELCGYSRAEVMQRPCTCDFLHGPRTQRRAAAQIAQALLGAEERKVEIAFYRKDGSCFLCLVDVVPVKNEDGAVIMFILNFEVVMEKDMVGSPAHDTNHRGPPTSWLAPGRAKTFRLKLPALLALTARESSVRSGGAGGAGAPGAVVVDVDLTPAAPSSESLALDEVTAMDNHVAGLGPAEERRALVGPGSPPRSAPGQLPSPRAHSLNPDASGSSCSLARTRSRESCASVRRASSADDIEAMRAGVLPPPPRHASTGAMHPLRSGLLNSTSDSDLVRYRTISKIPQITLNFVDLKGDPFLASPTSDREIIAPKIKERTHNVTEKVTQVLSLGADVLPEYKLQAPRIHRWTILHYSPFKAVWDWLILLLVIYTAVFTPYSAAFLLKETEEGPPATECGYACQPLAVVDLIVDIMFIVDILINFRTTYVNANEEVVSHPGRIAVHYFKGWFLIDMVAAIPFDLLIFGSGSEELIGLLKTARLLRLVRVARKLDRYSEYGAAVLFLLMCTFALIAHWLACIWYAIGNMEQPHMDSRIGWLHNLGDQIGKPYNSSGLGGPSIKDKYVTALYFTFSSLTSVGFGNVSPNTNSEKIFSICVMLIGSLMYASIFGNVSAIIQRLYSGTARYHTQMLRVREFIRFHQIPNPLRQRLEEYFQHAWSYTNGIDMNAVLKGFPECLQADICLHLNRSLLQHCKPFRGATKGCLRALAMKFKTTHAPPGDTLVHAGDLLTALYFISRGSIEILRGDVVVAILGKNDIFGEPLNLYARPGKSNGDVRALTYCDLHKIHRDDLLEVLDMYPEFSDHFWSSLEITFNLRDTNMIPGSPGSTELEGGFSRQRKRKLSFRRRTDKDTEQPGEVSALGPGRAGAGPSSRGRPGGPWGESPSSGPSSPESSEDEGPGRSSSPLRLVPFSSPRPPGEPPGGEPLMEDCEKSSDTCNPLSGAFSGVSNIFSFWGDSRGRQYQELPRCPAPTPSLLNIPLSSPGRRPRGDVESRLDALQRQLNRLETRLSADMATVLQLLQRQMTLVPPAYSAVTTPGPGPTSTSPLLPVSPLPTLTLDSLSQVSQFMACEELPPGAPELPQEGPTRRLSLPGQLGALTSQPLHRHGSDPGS

Chain of Dipeptidyl peptidase 4 (P27487 whole entry): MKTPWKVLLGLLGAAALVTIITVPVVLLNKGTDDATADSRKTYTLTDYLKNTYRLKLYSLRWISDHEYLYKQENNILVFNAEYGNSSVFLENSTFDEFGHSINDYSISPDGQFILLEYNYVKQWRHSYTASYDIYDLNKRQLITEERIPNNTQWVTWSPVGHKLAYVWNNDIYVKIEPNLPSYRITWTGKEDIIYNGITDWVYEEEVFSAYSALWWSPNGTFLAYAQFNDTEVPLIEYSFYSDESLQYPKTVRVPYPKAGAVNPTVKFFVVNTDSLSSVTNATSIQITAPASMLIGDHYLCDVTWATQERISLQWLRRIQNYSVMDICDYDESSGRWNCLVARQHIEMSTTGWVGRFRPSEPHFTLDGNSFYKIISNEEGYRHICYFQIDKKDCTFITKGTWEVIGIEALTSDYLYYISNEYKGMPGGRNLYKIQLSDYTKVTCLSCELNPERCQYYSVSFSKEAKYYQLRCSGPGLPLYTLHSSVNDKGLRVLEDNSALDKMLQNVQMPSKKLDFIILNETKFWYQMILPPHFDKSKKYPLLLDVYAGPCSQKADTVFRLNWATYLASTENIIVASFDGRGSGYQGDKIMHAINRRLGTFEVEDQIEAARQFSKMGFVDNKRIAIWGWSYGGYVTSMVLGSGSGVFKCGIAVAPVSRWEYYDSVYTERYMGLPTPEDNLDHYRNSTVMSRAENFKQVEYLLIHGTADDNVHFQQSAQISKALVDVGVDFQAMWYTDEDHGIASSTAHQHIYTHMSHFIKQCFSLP
Chain of Dipeptidyl peptidase 9 (Q86TI2 whole entry): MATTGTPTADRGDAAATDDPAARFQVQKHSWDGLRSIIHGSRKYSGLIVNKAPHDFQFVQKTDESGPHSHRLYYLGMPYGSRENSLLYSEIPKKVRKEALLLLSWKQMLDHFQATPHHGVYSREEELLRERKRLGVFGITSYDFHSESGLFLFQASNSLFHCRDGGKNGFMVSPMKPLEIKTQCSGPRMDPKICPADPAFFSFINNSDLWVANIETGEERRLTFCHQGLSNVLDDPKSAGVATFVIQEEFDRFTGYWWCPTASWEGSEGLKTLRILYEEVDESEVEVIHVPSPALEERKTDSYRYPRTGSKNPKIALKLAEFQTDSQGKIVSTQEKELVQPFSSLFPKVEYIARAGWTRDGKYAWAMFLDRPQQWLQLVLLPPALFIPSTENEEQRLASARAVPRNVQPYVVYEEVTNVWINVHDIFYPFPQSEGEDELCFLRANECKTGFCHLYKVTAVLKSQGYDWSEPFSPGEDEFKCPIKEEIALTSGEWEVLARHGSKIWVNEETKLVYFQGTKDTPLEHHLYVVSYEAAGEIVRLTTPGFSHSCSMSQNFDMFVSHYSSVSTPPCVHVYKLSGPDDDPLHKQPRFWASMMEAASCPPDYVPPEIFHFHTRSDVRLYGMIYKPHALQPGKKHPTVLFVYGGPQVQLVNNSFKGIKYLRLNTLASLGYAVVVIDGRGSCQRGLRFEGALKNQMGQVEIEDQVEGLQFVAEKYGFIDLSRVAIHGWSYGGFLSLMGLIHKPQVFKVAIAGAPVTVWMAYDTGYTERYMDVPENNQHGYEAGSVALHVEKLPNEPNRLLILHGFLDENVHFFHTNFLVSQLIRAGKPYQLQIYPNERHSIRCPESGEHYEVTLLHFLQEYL
Chain of Dipeptidyl peptidase 8 (Q6V1X1 whole entry): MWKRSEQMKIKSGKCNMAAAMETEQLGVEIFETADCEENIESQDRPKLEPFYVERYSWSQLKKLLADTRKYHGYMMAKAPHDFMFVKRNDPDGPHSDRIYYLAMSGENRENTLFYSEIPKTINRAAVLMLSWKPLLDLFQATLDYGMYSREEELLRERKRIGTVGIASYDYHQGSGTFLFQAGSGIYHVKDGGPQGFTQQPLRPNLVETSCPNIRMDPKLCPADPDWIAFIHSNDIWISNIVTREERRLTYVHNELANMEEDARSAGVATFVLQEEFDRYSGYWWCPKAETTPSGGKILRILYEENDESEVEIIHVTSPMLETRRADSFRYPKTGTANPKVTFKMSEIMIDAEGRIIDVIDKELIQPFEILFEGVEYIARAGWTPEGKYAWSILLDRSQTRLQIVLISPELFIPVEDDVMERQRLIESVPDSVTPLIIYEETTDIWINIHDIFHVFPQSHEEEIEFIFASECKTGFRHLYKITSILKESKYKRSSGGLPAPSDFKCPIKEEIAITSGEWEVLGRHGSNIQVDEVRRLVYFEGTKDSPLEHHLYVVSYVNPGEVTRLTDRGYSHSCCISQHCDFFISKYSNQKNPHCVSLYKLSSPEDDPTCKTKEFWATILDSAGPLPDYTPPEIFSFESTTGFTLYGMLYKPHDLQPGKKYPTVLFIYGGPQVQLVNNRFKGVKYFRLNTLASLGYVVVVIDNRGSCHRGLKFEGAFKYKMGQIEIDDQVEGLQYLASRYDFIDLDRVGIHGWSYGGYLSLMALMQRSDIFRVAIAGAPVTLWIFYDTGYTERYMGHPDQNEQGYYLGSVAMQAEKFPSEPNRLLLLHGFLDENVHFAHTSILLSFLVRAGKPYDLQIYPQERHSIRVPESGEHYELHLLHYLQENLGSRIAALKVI
Chain of Cytochrome P450 2D6 (P10635 whole entry): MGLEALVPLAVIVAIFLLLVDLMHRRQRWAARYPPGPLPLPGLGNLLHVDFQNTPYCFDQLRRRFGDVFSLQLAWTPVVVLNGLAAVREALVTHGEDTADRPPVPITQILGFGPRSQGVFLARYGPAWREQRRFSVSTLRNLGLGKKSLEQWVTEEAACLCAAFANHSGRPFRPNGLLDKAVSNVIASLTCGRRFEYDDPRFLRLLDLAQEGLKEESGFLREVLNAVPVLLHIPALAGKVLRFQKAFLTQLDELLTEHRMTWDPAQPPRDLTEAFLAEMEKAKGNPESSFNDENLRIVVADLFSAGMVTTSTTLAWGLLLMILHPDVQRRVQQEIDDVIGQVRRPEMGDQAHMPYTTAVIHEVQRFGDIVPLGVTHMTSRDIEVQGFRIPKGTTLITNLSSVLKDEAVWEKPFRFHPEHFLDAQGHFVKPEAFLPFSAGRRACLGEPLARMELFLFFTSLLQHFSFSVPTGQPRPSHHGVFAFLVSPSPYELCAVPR

IC50 [1]	IC50 [2]	IC50 [3]	IC50 [4]	IC50 [5]	bioavailability [6]	half-life [7]	clearance [8]	IC50 [9]	SMILES	IC50 [10]
0.009 µM	90 µM	> 100 µM	96 µM	–	–	–	–	–	N[C@H]1CN(c2ccc3nnc(C(F)(F)F)n3n2)CC[C@@H]1c1cc(F)c(F)cc1F	–
–	–	–	15 µM	–	–	–	–	–	N[C@H]1CN(c2ccc3nnc(-c4ccc(F)cc4)n3n2)CC[C@@H]1c1cc(F)c(F)cc1F	–
0.058 µM	38 µM	34 µM	50 µM	–	–	–	–	–	N[C@H]1CN(c2ccccn2)CC[C@@H]1c1cc(F)c(F)cc1F	–
0.144 µM	36 µM	54 µM	82 µM	–	–	–	–	–	N[C@H]1CN(c2cccnc2)CC[C@@H]1c1cc(F)c(F)cc1F	–
0.111 µM	21 µM	> 100 µM	5.3 µM	–	–	–	–	–	N[C@H]1CN(c2cccc(C(F)(F)F)n2)CC[C@@H]1c1cc(F)c(F)cc1F	–
–	> 100 µM	> 100 µM	–	–	–	–	–	–	N[C@H]1CN(c2ncccc2C(F)(F)F)CC[C@@H]1c1cc(F)c(F)cc1F	–
0.014 µM	9.6 µM	5.8 µM	40 µM	–	–	–	–	–	N#Cc1ccc(N2CC[C@H](c3cc(F)c(F)cc3F)[C@@H](N)C2)nc1	–
0.037 µM	67 µM	60 µM	> 100 µM	26.9 µM	–	–	–	–	N[C@H]1CN(c2ccncn2)CC[C@@H]1c1cc(F)c(F)cc1F	–
0.082 µM	40 µM	76 µM	33 µM	–	–	–	–	–	N[C@H]1CN(c2cnccn2)CC[C@@H]1c1cc(F)c(F)cc1F	–
0.063 µM	44 µM	40 µM	> 100 µM	–	–	–	–	–	N[C@H]1CN(c2cccnn2)CC[C@@H]1c1cc(F)c(F)cc1F	–
3.7 µM	> 100 µM	> 100 µM	32 µM	–	–	–	–	–	N[C@H]1CN(c2nccc3ccccc23)CC[C@@H]1c1cc(F)c(F)cc1F	–
0.007 µM	50 µM	25 µM	35 µM	–	–	–	–	–	N[C@H]1CN(c2ccc3nccnc3n2)CC[C@@H]1c1cc(F)c(F)cc1F	–
0.13 µM	> 100 µM	66 µM	58 µM	–	–	–	–	–	N[C@H]1CN(c2cnc3cccnc3n2)CC[C@@H]1c1cc(F)c(F)cc1F	–
–	–	–	87 µM	–	–	–	–	–	N[C@H]1CN(c2cnc3cncnc3n2)CC[C@@H]1c1cc(F)c(F)cc1F	–
0.013 µM	> 100 µM	54 µM	93 µM	4.1 µM	45%	1.4 h	62 mL/min/kg	11.6 µM	N[C@H]1CN(c2cnc3nccnc3n2)CC[C@@H]1c1cc(F)c(F)cc1F.O=C(O)C(F)(F)F	–
0.005 µM	> 100 µM	> 100 µM	> 100 µM	1 µM	–	–	–	0.1 µM	N[C@H]1CN(c2ccc3nc(C(F)(F)F)nn3n2)CC[C@@H]1c1cc(F)c(F)cc1F	8.1 µM
0.026 µM	43 µM	30 µM	> 100 µM	–	19%	1.5 h	54 mL/min/kg	20.6 µM	N[C@H]1CN(c2ccn3cnnc3n2)CC[C@@H]1c1cc(F)c(F)cc1F.O=C(O)C(F)(F)F	–

IC50 [1]	IC50 [2]	IC50 [3]	IC50 [4]	IC50 [5]	bioavailability [6]	half-life [7]	clearance [8]	IC50 [9]	SMILES	IC50 [10]
0.008 µM	32 µM	28 µM	9.9 µM	–	–	–	–	–	N[C@H]1CN(c2ccc3ncnc(C4CC4)c3n2)CC[C@@H]1c1cc(F)c(F)cc1F	–
0.007 µM	> 100 µM	80 µM	46 µM	–	–	–	–	–	Cc1nc2ccc(N3CC[C@H](c4cc(F)c(F)cc4F)[C@@H](N)C3)nc2c(=O)[nH]1	–
0.0012 µM	19 µM	> 100 µM	> 100 µM	84.6 µM	12%	1.6 h	35 mL/min/kg	55.4 µM	N[C@H]1CN(c2ccc3nc(=O)ccn3n2)CC[C@@H]1c1cc(F)c(F)cc1F.O=C(O)C(F)(F)F	100 µM
0.008 µM	> 100 µM	> 100 µM	> 100 µM	18.5 µM	74%	1.4 h	18 mL/min/kg	16.2 µM	Cc1cc(=O)n2nc(N3CC[C@H](c4cc(F)c(F)cc4F)[C@@H](N)C3)ccc2n1.O=C(O)C(F)(F)F	33.2 µM
0.031 µM	> 100 µM	> 100 µM	> 100 µM	–	–	–	–	–	N[C@H]1CN(c2ccc3nncn3n2)CC[C@@H]1c1cc(F)c(F)cc1F	–
0.006 µM	> 100 µM	> 100 µM	74 µM	2 µM	100%	4.7 h	12 mL/min/kg	–	Cc1nnc2ccc(N3CC[C@H](c4cc(F)c(F)cc4F)[C@@H](N)C3)nn12.O=C(O)C(F)(F)F	–
–	–	–	28 µM	–	–	–	–	–	N[C@H]1CN(c2ccc(C(F)(F)F)cn2)CC[C@@H]1c1cc(F)c(F)cc1F	–
0.054 µM	13 µM	10 µM	21 µM	–	–	–	–	–	N[C@H]1CN(c2ccc3ccccc3n2)CC[C@@H]1c1cc(F)c(F)cc1F	–
–	–	–	27 µM	–	–	–	–	–	N[C@H]1CN(c2cnc3ccccc3n2)CC[C@@H]1c1cc(F)c(F)cc1F	–
0.022 µM	75 µM	49 µM	64 µM	–	–	–	–	–	N[C@H]1CN(c2ccc3nc(C(F)(F)F)cn3n2)CC[C@@H]1c1cc(F)c(F)cc1F	–
0.002 µM	57 µM	> 100 µM	41 µM	–	–	–	–	–	Cn1c(C2CC2)nc2ccc(N3CC[C@H](c4cc(F)c(F)cc4F)[C@@H](N)C3)nc21	–
–	–	–	90 µM	–	–	–	–	–	CCc1nnc2ccc(N3CC[C@H](c4cc(F)c(F)cc4F)[C@@H](N)C3)nn12	–
0.21 µM	39 µM	33 µM	5.5 µM	–	–	–	–	–	N[C@H]1CN(c2ccccc2)CC[C@@H]1c1cc(F)c(F)cc1F	–
0.125 µM	35 µM	43 µM	46 µM	–	–	–	–	–	N[C@H]1CN(c2ccncc2)CC[C@@H]1c1cc(F)c(F)cc1F	–
–	–	–	57 µM	–	–	–	–	–	Cn1nc2ccc(N3CC[C@H](c4cc(F)c(F)cc4F)[C@@H](N)C3)nn2c1=O	–
0.09 µM	58 µM	33 µM	54 µM	–	–	–	–	–	N[C@H]1CN(c2ncccn2)CC[C@@H]1c1cc(F)c(F)cc1F	–
